According to patent publication US11992497B2 (priority 2021, dated 2024):
Like-named read-outs stand apart in the source and are kept apart here.

How the values were obtained:
[1] = tested on: cryopreserved hepatocytes; test: Hepatocyte stability and metabolite profiling; type: in vitro ADME, dog; settings: dog hepatocyte samples
Experimental: (§1) The objective of this study was to investigate the stability of the test compound, CBG, in human, rat, dog, mouse, monkey and minipig cryopreserved hepatocytes. Follow-on metabolite profiling was performed.
(§2) CBG was incubated up to 2 hr with cryopreserved hepatocytes. Cryopreserved hepatocytes in suspension were added to test compound in supplemented media following pre-incubation to initiate the reaction and the reactions were stopped by organic solvent at the appropriate time points. The termination plates were centrifuged and sample supernatants were analysed using Cyprotex generic LC MS/MS conditions to generate intrinsic clearance values for CBG. Two control compounds for each species were included in the assay and if the values for these compounds were not within the specified limits the results were rejected and the experiment repeated.
(§3) Following the hepatocyte stability assay the samples were 59tilized for metabolite profiling using suitable high-resolution LC-MS/MS conditions. The 40 and 60 minute human samples, 20 and 120 minute rat samples, 10 and 20 minute dog and monkey samples, 20 and 60 minute mouse samples, and 40 and 120 minute minipig samples were compared against the 0 minute control sample to establish which and how many metabolites were formed. […] No further analysis was carried out with the mouse species.
(§4) The areas and percentages reported for the parent and metabolites were calculated using the XIC data. Metabolite observed at greater than 1% of the total of drug related material are reported. […] For accuracy, a ppm error of less than 5 is desirable; when the response for a metabolite observed is low the ppm error maybe greater than 5. Where a metabolite has been referred to as a potential oxidation it can refer to a potential hydroxylation, epoxidation or oxide formation. Representative collision induced dissociation (CID) mass spectra were obtained for the metabolites found.

[2] = Hepatocyte stability and metabolite profiling; type: in vitro ADME, dog; settings: cryopreserved hepatocytes in suspension; Dog cryopreserved hepatocytes
Experimental: as §1, §2, §3, §4

[3] = Quantification of CBG and CBG glucuronide in rat plasma (LC-MS/MS); type: in vivo, Sprague-Dawley rat
Experimental: The purpose of this study was to quantify cannabigerol (CBG) in rat plasma and brain.
Seven- to nine-week-old male and female Sprague-Dawley received either a single dose or once daily dosing for 21 days of vehicle or CBG at three different dosage levels as shown in the Table below.
Approximately 0.2-0.25 mL blood was collected during the first 24 hours after the single dose, and at multiple times points after the terminal dose for the animals receiving daily dosing for 21 days. Liver, kidney, and colon samples were collected and fixed in 10% NBF for 48 hours, then stored in 70% ethanol at room temperature. Brain samples were collected and flash frozen.
Analytical curves were constructed using non-zero standards with CBG concentration ranging from 0.0025 to 2.500 μg/mL and 2.500-100.0 μg/mL in blank rat plasma samples and 1.0 to 2500 ng/mL in blank brain tissues. A blank sample was used to exclude contamination.
Instrument Used: AB SCIEX QTRAP 4500/Shimadzu Prominence LC

[4] = tested on: cryopreserved hepatocytes; test: Hepatocyte stability and metabolite profiling; type: in vitro ADME, rat; settings: rat hepatocyte samples
Experimental: as §1, §2, §3, §4

[5] = Hepatocyte stability and metabolite profiling; type: in vitro ADME, rat; settings: cryopreserved hepatocytes in suspension; Rat cryopreserved hepatocytes
Experimental: as §1, §2, §3, §4

CCCCCc1cc(O)c(C/C=C(\C)CCC=C(C)C)c(O)c1 [CBG, cannabigerol]
number of metabolites observed [1]: three
half-life [2]: 52.7 min
hepatocyte CLint [2]: 26.3 µL/min/1e6 cells
CBG concentration in rat plasma (Day 21) ([3]; CBG 10 mg/kg oral gavage once daily, 15 min post Rx): BLQ (BLQ—Below Limit of Quantification (2.5 ng/ml))
CBG concentration in rat plasma (Day 21) ([3]; CBG 10 mg/kg oral gavage once daily, 30 min post Rx): BLQ (BLQ—Below Limit of Quantification (2.5 ng/ml))
CBG concentration in rat plasma (Day 21) ([3]; CBG 10 mg/kg oral gavage once daily, 24 hr post Rx): BLQ (BLQ—Below Limit of Quantification (2.5 ng/ml))
CBG concentration in rat plasma (Day 1) ([3]; CBG 10 mg/kg oral gavage once, 15 min post Rx): BLQ (BLQ—Below Limit of Quantification (2.5 ng/ml))
CBG concentration in rat plasma (Day 1) ([3]; CBG 10 mg/kg oral gavage once, 30 min post Rx): BLQ (BLQ—Below Limit of Quantification (2.5 ng/ml))
CBG concentration in rat plasma (Day 1) ([3]; CBG 10 mg/kg oral gavage once, 4 hr post Rx): BLQ (BLQ—Below Limit of Quantification (2.5 ng/ml))
CBG concentration in rat plasma (Day 1) ([3]; CBG 10 mg/kg oral gavage once, 8 hr post Rx): BLQ (BLQ—Below Limit of Quantification (2.5 ng/ml))
CBG concentration in rat plasma (Day 1) ([3]; CBG 10 mg/kg oral gavage once, 24 hr post Rx): BLQ (BLQ—Below Limit of Quantification (2.5 ng/ml))
CBG concentration in rat plasma (Day 21) ([3]; CBG 30 mg/kg oral gavage once daily, 30 min post Rx): BLQ (BLQ—Below Limit of Quantification (2.5 ng/ml))
CBG concentration in rat plasma (Day 21) ([3]; CBG 30 mg/kg oral gavage once daily, 1 hr post Rx): BLQ (BLQ—Below Limit of Quantification (2.5 ng/ml))
CBG concentration in rat plasma (Day 21) ([3]; CBG 30 mg/kg oral gavage once daily, 2 hr post Rx): BLQ (BLQ—Below Limit of Quantification (2.5 ng/ml))
CBG concentration in rat plasma (Day 21) ([3]; CBG 30 mg/kg oral gavage once daily, 4 hr post Rx): BLQ (BLQ—Below Limit of Quantification (2.5 ng/ml))
CBG concentration in rat plasma (Day 21) ([3]; CBG 30 mg/kg oral gavage once daily, 8 hr post Rx): BLQ (BLQ—Below Limit of Quantification (2.5 ng/ml))
CBG concentration in rat plasma (Day 21) ([3]; CBG 30 mg/kg oral gavage once daily, 24 hr post Rx): BLQ (BLQ—Below Limit of Quantification (2.5 ng/ml))
CBG concentration in rat plasma (Day 1) ([3]; CBG 30 mg/kg oral gavage once, 8 hr post Rx): BLQ (BLQ—Below Limit of Quantification (2.5 ng/ml))
CBG concentration in rat plasma (Day 21) ([3]; CBG 100 mg/kg oral gavage once daily, 24 hr post Rx): BLQ (BLQ—Below Limit of Quantification (2.5 ng/ml))
CBG concentration in rat plasma (Day 1) ([3]; CBG 100 mg/kg oral gavage once, 15 min post Rx): BLQ (BLQ—Below Limit of Quantification (2.5 ng/ml))
CBG concentration in rat plasma (Day 1) ([3]; CBG 100 mg/kg oral gavage once, 30 min post Rx): BLQ (BLQ—Below Limit of Quantification (2.5 ng/ml))
CBG concentration in rat plasma (Day 1) ([3]; CBG 100 mg/kg oral gavage once, 1 hr post Rx): BLQ (BLQ—Below Limit of Quantification (2.5 ng/ml))
CBG concentration in rat plasma (Day 1) ([3]; CBG 100 mg/kg oral gavage once, 2 hr post Rx): BLQ (BLQ—Below Limit of Quantification (2.5 ng/ml))
CBG concentration in rat plasma (Day 1) ([3]; CBG 100 mg/kg oral gavage once, 8 hr post Rx): BLQ (BLQ—Below Limit of Quantification (2.5 ng/ml))
CBG concentration in rat plasma (Day 1) ([3]; CBG 100 mg/kg oral gavage once, 24 hr post Rx): BLQ (BLQ—Below Limit of Quantification (2.5 ng/ml))
concentration at 1 h ([3]; both sexes, Sprague-Dawley, rat, plasma, oral, 10 mg/kg, CBG 10 mg/kg oral gavage once daily, 1 hr post Rx, read-out: CBG concentration in rat plasma (Day 21)): 1.67 ng/mL
concentration at 4 h ([3]; both sexes, Sprague-Dawley, rat, plasma, oral, 10 mg/kg, CBG 10 mg/kg oral gavage once daily, 4 hr post Rx, read-out: CBG concentration in rat plasma (Day 21)): 4.73 ng/mL
concentration at 8 h ([3]; both sexes, Sprague-Dawley, rat, plasma, oral, 10 mg/kg, CBG 10 mg/kg oral gavage once daily, 8 hr post Rx, read-out: CBG concentration in rat plasma (Day 21)): 2.55 ng/mL
concentration at 2 h ([3]; both sexes, Sprague-Dawley, rat, plasma, oral, 10 mg/kg, CBG 10 mg/kg oral gavage once, 2 hr post Rx, read-out: CBG concentration in rat plasma (Day 1)): 12 ng/mL
concentration at 15 min ([3]; both sexes, Sprague-Dawley, rat, plasma, oral, 30 mg/kg, CBG 30 mg/kg oral gavage once, 15 min post Rx, read-out: CBG concentration in rat plasma (Day 1)): 3.8 ng/mL
concentration at 30 min ([3]; both sexes, Sprague-Dawley, rat, plasma, oral, 30 mg/kg, CBG 30 mg/kg oral gavage once, 30 min post Rx, read-out: CBG concentration in rat plasma (Day 1)): 15.2 ng/mL
concentration at 24 h ([3]; both sexes, Sprague-Dawley, rat, plasma, oral, 30 mg/kg, CBG 30 mg/kg oral gavage once, 24 hr post Rx, read-out: CBG concentration in rat plasma (Day 1)): 2.75 ng/mL
concentration at 15 min ([3]; both sexes, Sprague-Dawley, rat, plasma, oral, 100 mg/kg, CBG 100 mg/kg oral gavage once daily, 15 min post Rx, read-out: CBG concentration in rat plasma (Day 21)): 41.6 ng/mL
concentration at 30 min ([3]; both sexes, Sprague-Dawley, rat, plasma, oral, 100 mg/kg, CBG 100 mg/kg oral gavage once daily, 30 min post Rx, read-out: CBG concentration in rat plasma (Day 21)): 178 ng/mL
concentration at 1 h ([3]; both sexes, Sprague-Dawley, rat, plasma, oral, 100 mg/kg, CBG 100 mg/kg oral gavage once daily, 1 hr post Rx, read-out: CBG concentration in rat plasma (Day 21)): 226 ng/mL
concentration at 2 h ([3]; both sexes, Sprague-Dawley, rat, plasma, oral, 100 mg/kg, CBG 100 mg/kg oral gavage once daily, 2 hr post Rx, read-out: CBG concentration in rat plasma (Day 21)): 307 ng/mL
concentration at 4 h ([3]; both sexes, Sprague-Dawley, rat, plasma, oral, 100 mg/kg, CBG 100 mg/kg oral gavage once, 4 hr post Rx, read-out: CBG concentration in rat plasma (Day 1)): 119 ng/mL
concentration of CBG in plasma (in words) ([3]; oral CBG 10-100 mg/kg, Days 1 and 21): low or below the level of quantitation (BLQ)
first pass metabolism to the glucuronide upon oral administration (in words) ([3]; oral CBG, rat): very high first pass metabolism to the glucuronide
number of metabolites observed [4]: eight
half-life [5]: 49 min
hepatocyte CLint [5]: 28.3 µL/min/1e6 cells
